This assay concerns MCF-7 cells. The assay can be described thus: TUNEL assay. Format: cell-based, human. The conditions noted are these: 2 μM, 24 h, compared to control group. The source says:
To ascertain induction of apoptosis of compound 9a on MCF-7 cells, the results were confirmed by immune histochemical analysis using a TUNEL assay. TUNEL assay involves labeling of the 3'-hydroxyl DNA ends generated during DNA fragmentation by means of rTdT and labeled dUTP. The localized fluorescence of apoptotic cells (labeled-dUTP) in a blue background (DAPI) for nuclei staining or green background (FITC) was visualized using fluorescence microscope.
For in situ detection of apoptotic cells, a terminal-deoxynucleotidyl transferase meditated nick end labeling (TUNEL) assay was performed using DeadEndTM fluorimetric tunnel system (Promega, Madison, WI, USA). Cells were cultured on 4-chamber slides (VWR, Radnor, PA, USA) at a density of 2 × 10^4 cells/ chamber. After treatment with compound 9a, cells were washed with phosphate buffer saline (PBS) and fixed by incubation in 4% paraformaldehyde (PFA) for 20 min at 4 °C, then permeabilized with 0.05% Triton X-100 for 5 min at 4 °C. The fixed cells were then incubated with […] dUTP in terminal deoxynucleotide transferase recombinant (rTdT)-catalyzed reaction and nucleotide mixture for 60 min at 37 °C in a humidified atmosphere and then immersed in stop/wash buffer for 15 min at room temperature. Cells were then washed with PBS to remove unincorporated fluorescein-12-dUTP. […]

The results in this text go back to PMC6274259, “New 3-Cyano-2-Substituted Pyridines Induce Apoptosis in MCF 7 Breast Cancer Cells” (Molecules, 2016).

Take `COc1ccc(-c2cc(-c3ccc(OC)c(OC)c3)c(C#N)c(OCC(=O)NNC(=O)c3ccccc3)n2)cc1OC` [Compound 9a, N'-[2-(3-cyano-4,6-bis(3,4-dimethoxyphenyl)pyridin-2-yloxy)acetyl]benzohydrazide]: the TUNEL staining result is “presence of nuclear condensation and TUNEL-positive cells”.
